Experiments:
MiaPaCa-2 = assay: Cell viability assay (MTS), MiaPaCa-2; format: cell-based, human; conditions: Homo sapiens, MIA PaCa-2, pancreatic cancer cells, 48 h, mean ± SD
Protocol: (§1) Five thousand cells/well were plated in 96-well plates in growth media and left for attachment for 24 h. The cells were then treated with the respective compounds using varying concentrations for 48 h. At the end of the treatment duration, a solution of MTS [3-(4,5-dimethylthiazol-2-yl)-5-(3-carboxymethoxyphenyl)-2-(4-sulfophenyl)-2H-tetrazolium] and an electron coupling reagent, PES (phenazine ethosulfate) (Promega, Madison, WI, USA) was added to the cells. Then, 15 μL of MTS reagent was added to each well, and the absorbance was assessed at 490 nm with a microplate reader (Dynex Technologies, MRX Revelation; Chantilly, VA, USA) after 1 h incubation with MTS. The data were recorded, and the IC50 value was calculated using non-linear curve regression analysis (Graph pad V8.0, CA, USA).

HEK-293 = assay: Cell viability assay (MTS), HEK-293; format: cell-based; conditions: HEK293, human embryonic kidney cells, 48 h, mean ± SD
Protocol: as §1

FHC = assay: Cell viability assay (MTS), FHC; format: cell-based; conditions: FHC, normal fetal human cells, 48 h, mean ± SD
Protocol: as §1

HCT-116 = assay: Cell viability assay (MTS), HCT-116; format: cell-based, human; conditions: Homo sapiens, HCT-116, colon cancer cells, 48 h, mean ± SD
Protocol: as §1

ALDH1A1 = biological target: T1, ALDH1A1 (Homo sapiens, UniProt P00352); assay: ALDH isoform-specific enzyme inhibition assay, ALDH1A1; format: biochemical; conditions: 500 nM, Acetaldehyde (Substrate)
T1 construct: purchased R&D systems
T1 sequence (P00352 1-501): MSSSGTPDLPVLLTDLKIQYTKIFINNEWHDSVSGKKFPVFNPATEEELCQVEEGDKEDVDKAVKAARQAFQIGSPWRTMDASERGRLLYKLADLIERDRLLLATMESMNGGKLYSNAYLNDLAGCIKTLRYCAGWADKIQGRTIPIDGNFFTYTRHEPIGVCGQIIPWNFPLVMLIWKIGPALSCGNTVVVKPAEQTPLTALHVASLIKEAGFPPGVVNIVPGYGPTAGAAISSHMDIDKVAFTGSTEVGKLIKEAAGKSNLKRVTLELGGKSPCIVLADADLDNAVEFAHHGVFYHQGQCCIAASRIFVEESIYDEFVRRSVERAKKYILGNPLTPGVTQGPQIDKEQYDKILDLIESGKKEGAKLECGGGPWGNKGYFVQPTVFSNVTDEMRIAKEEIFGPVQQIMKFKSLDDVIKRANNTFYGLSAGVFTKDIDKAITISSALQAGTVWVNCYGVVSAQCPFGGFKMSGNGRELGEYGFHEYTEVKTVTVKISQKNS
Protocol: (§2) ALDH1A1, ALDH3A1, and ALDH1A3 enzyme inhibition assays were performed as reported previously. Briefly, 500 ng/100 uL of ALDH1A1, ALDH3A1, and ALDH1A3 were treated with 500 nM concentration of the tested compounds and incubated for 15 min followed by the addition of reaction mixture (substrate + Substrate mixture). […] The absorbance was measured at 450 nm. [Absorbance Control–Absorbance treated/Absorbance Control]100 was used to compute the percentage of inhibition.

ALDH3A1 = biological target: T2, ALDH3A1 (Homo sapiens, UniProt P30838); assay: ALDH isoform-specific enzyme inhibition assay, ALDH3A1; format: biochemical; conditions: 500 nM, Acetaldehyde (Substrate)
T2 construct: purchased R&D systems
T2 sequence (P30838 1-453): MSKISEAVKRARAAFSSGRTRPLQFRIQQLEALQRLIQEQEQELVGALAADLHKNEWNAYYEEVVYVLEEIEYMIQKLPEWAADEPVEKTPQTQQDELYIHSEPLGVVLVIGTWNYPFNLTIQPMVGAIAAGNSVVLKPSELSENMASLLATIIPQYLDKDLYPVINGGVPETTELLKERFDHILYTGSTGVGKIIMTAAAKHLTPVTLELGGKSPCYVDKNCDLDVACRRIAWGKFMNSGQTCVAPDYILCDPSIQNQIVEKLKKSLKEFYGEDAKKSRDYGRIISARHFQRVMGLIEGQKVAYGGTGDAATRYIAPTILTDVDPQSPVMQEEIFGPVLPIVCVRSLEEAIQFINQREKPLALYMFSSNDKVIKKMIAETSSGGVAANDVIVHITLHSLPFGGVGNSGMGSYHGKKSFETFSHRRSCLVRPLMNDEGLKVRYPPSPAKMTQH
Protocol: as §2

SKOV-3 = assay: Cell viability assay (MTS), SKOV-3; format: cell-based, human; conditions: Homo sapiens, SK-OV-3, ovarian cancer cells, 48 h, mean ± SD
Protocol: as §1

[1] = test system: SKOV-3, MiaPaCa-2, HCT-116, HEK-293, and FHC cell lines; assay: Cell viability assay (MTS), statements over the cell line panel; format: cell-based, human
Protocol: as §1

[2] = as above; format: cell-based, human; conditions: human; range or statement over all tested cell lines, 48 h MTS; read-out: IC50 / cytotoxicity against the tested cell lines
Protocol: as §1

HNSCC xenograft = conditions: injected intratumorally ref 29; cited from earlier work

SMILES | melting point | IC50 (MiaPaCa-2) | IC50 (HEK-293) | IC50 (FHC) | IC50 (HCT-116) | inhibition at 0.5 µM (ALDH1A1) | inhibition at 0.5 µM (ALDH3A1) | IC50 (SKOV-3) | IC50 / cytotoxicity against the tested cell lines ([1]; range or statement over all tested cell lines, 48 h MTS) | IC50 at 48 h [2] | IC50 ([1]; Homo sapiens, Pancreatic cancer cell, 48 h, read-out: IC50 in cancer cell lines) | reduction of HNSCC xenograft development (HNSCC xenograft)
O=C(OCc1ccc(CN2C(=O)C(=O)c3cc(Br)cc(Br)c32)cc1)c1ccco1 [Compound 4, 4-((5,7-Dibromo-2,3-dioxoindolin-1-yl)methyl)benzyl furan-2-carboxylate] | 132 to 134 °C | 7.1 ± 0.8 µM | 5.3 ± 1.4 µM | 6.7 ± 1.9 µM | 6.1 ± 1.2 µM | 28.26 ± 0.01% | 22.82 ± 0.05% | 7.2 ± 1.3 µM |  |  |  | 
O=Cc1ccc(CN2C(=O)C(=O)c3cc(Br)cc(Br)c32)cc1 [Compound 5, 4-((5,7-Dibromo-2,3-dioxoindolin-1-yl)methyl)benzaldehyde] | 205 to 207 °C | 5.4 ± 0.9 µM | 7.5 ± 1.8 µM | 12.9 ± 3.3 µM | 8.8 ± 2.3 µM | 24.82 ± 0.01% | 39.58 ± 0.05% | 8.2 ± 1.1 µM | less cytotoxic than KS100 |  |  | 
Br.N=C(N)SCc1ccc(Cn2nc(Br)c3cc(C(F)(F)F)ccc32)cc1 [Compound 16, 4-((3-Bromo-5-(trifluoromethyl)-1H-indazol-1-yl)methyl)benzyl carbamimidothioate hydrobromide] | 213 to 215 °C | 6.8 ± 1.4 µM | 5.7 ± 1.3 µM | 7.1 ± 1.1 µM | 4.9 ± 1.1 µM | 9.46 ± 0.01% | -9.33 ± 0.04% | 4 ± 1.3 µM |  | 2.1 to 6.8 µM |  | 
Br.N=C(N)SCc1ccc(Cn2nc(Br)c3cccc(C(F)(F)F)c32)cc1 [Compound 17, 4-((3-Bromo-7-(trifluoromethyl)-1H-indazol-1-yl)methyl)benzyl carbamimidothioate hydrobromide] | 235 to 237 °C | > 50 µM | > 50 µM | > 50 µM | > 50 µM | 10.99 ± 0.0015% | -25.33 ± 0.05% | > 50 µM |  |  | > 50 µM | 
CC(C)CCn1c(CN2CCN(C(=O)C3CC3)CC2)nc2c1c(=O)n(C)c(=O)n2C [NCT-501] |  |  |  |  |  |  |  |  |  |  |  | 78%

— PMC11243058, “Identification of Novel Isatin Derivative Bearing a Nitrofuran Moiety as Potent Multi-Isoform Aldehyde Dehydrogenase Inhibitor” (Molecules, 2024)
